From patent US6365571B1, “FGF inhibitor, angiogenesis inhibitor and antitumor agent containing complestatin or its derivative as effective ingredient” (NODA Institute for Scientific Research, priority 1998, dated 2002)

Legend:
bFGF receptors = test: Inhibition of specific binding of 125I-bFGF to receptors on Balb/3T3 clone A31 cells; design: species or system mouse; details: various concentrations, 2 ng/ml 125I-bFGF, 1.5 hours at 4° C., FIG. 5
Experimental: (3) Inhibitory effects on binding of bFGF to receptors was investigated for the above-mentioned sample solution according to the method of A. Yayon, et al. (Proc. Natl. Acad. Sci., USA, 90, 10643, 1993).
Namely, 1 ml of medium containing mouse fibroblast cell Balb/3T3 clone A31 cells at a concentration of 1×10^5 cells/ml (Dulbecco's modified Eagle's medium containing 10% calf serum, 25 mM HEPES (pH 7.5), 10 units/ml of penicillin and 10 μg/ml of streptomycin (10% CS/DMEM)) was added to a 24-well culture plate, and cultured for one day at 37° C. in a CO2 incubator. Furthermore, mouse fibroblast cells are known to express FGF receptors on their cell surfaces (J. Biol. Chem., 268, 9611, 1993). […]
Following completion of the reaction, after removing the binding medium and washing once with cold binding medium, the plate was washed twice with cold PBS (0.2 g potassium chloride, 0.2 g potassium primary phosphate, 8 g sodium chloride, 1.15 g sodium secondary phosphate and 1 liter of deionized water) at pH 7.5 containing 1.6 M sodium chloride. […] This procedure was repeated again, the solution was combined with the previous solution and then transferred to an RIA tube where radioactivity was measured with a gamma counter (available from Pharmacia Co.).
The amount of bFGF bound to receptors (specifically bound amount) was determined according to the following formula: […]

Balb/3T3 clone A31 cells = test: Inhibition of cell migration stimulated by bFGF (chemotaxis chamber); format: cell-based, mouse; details: various concentrations, 1 ng/ml bFGF, 5 hours, FIG. 7
Excerpt: The effect of complestatin on cell migration stimulated by bFGF was investigated using a 96-well chemotaxis chamber (available from NEURO PROBE CO.) installed with an 8 μm frame filter (available from NEURO PROBE CO.) precoated with gelatin.
The experimental principle is illustrated-in FIG. 6. When bFGF is placed in the bottom well, cells adhered to the frame filter in the top well migrate to the bottom well.
Addition of complestatin to the bottom well can be used to investigate the inhibitory effect of complestatin on cell movement.
(1) 100 μl of cell suspension (0.5% CS/DMEM containing Balb/3T3 clone A31 cells at a concentration of 5×10^5 cells/ml) were placed in the top wells. In addition, 35 μl of 0.5% CS/DMEM containing various concentrations of complestatin and 1 ng/ml of bFGF were placed in the bottom wells.
(2) After incubating the chamber for 5 hours at 37° C. in a CO2 incubator, the frame filter was removed from the chamber, the cells were stained with Diff-Quik staining solution (trade name, available from Kokusai Shiyaku Co.), and the number of cells that migrated to the bottom surface of the filter was counted. Furthermore, with the exception of not adding complestatin to the bottom wells, the same procedure was performed for the control.

[1] = system: bovine aortic endothelial cells (BAEC); test: Tube formation of vascular endothelial cells in collagen gel; format: cell-based; details: Bos taurus, 48 h, 2 days, read-out: Tube formation inhibition rate
Experimental: The inhibitory effect of complestatin on angiogenesis was investigated using a modified method of Furubayashi, et al. (J. Jap. Pharm., 105, 357, 1995). In this method, vascular endothelial cells form a tube (blood vessel-like tubular structure) in collagen gel. Addition of complestatin to this system makes it possible to investigate the inhibitory effect of complestatin on angiogenesis.
(1) Collagen gel was prepared in the manner described below. To begin with, type I collagen solution (3 mg/ml, available from Wako Junyaku Co.), 10-fold concentrated HEPES-free DMEM, reconstitution buffer (2.2 g of sodium bicarbonate and 4.77 g of HEPES dissolved in 100 ml of 0.05 N aqueous sodium hydroxide solution) and deionized water were mixed on ice at a ratio of 5:1:1:3 followed by the addition of 0.75 ml aliquots to each well of a 12-well plate. This plate was then incubated for 20 minutes in an incubator at 37° C. to form a gel.
(2) A cell suspension was prepared by suspending 3×10^5 cells/ml of bovine aortic endothelial cells (BAEC) in 10% CS/DMEM, after which 1.5 ml aliquots were inoculated onto the collagen gel followed by culturing for one day at 37° C. in a CO2 incubator. After removing the medium and washing four times with DMEM, 0.75 ml aliquots of the above-mentioned type I collagen solution were layered onto the plate followed by gelation at 37° C. in an incubator. 1.5 ml of 0.5% CS/DMEM containing various concentrations of complestatin were added to the resulting gel followed by culturing for 2 days at 37° C. in a CO2 incubator.
(3) After culturing, photographs were taken of four fields randomly selected for each well and these photographs were then analyzed by using the Olympus image processing analyzer Type SP500F (trade name, available from Olympus Co.) to determine the lengths of all tubes. The length of tube was then divided by the field area to determine the tube length per unit area.
The tube formation inhibition rate of complestatin was calculated according to the following formula:
{1− (tube length per unit area at each concentration/tube length per unit area in the absence of addition of complestatin)}×100

[2] = system: mouse fibrosarcoma (Meth A) cells; test: Antitumor activity, Meth A cells transplanted subcutaneously to mice; format: in vivo; details: days 1 to 4 and 7 to 9, BALB/c-nu/nu mice, tumor size after 10 days
Experimental: The antitumor activity of complestatin was confirmed in an experiment using mouse fibrosarcoma (Meth A) cells. To begin with, 1×10^6 Meth A cells cultured in the abdominal cavity of BALB/c-nu/nu mice were transplanted subcutaneously to BALB/c-nu/nu mice (control group: 5 mice, experimental group: 5 mice), and tumor size was measured after 10 days.
Complestatin was dissolved in PBS, and administered intraperitoneally at 250μl/day once a day during days 1 to 4 and days 7 to 9. The dosing concentrations of complestatin were set at 5 mg/kg and 10 mg/kg. The tumor growth inhibition rate caused by complestatin was calculated according to the following formula:
{1− (tumor size at each dosing concentration/tumor size at dosing concentration of 0 mg/kg)}×100

[3] = system: fetal bovine heart endothelial (FBHE) cells; test: Inhibition of FBHE cell growth stimulated by bFGF; format: cell-based; details: various concentrations, 1 ng/ml bFGF, 2 days, FIG. 8
Experimental: (§1) Growth of both fetal bovine heart endothelial (FBHE) cells and human umbilical vein endothelial cells (HUVEC) was promoted by addition of bFGF to the media. The inhibitory effect of complestatin on the cell growth stimulated by bFGF was investigated using these cells.
(1) 10% CS/DMEM containing FBHE at a concentration of 1×10^4 cells/ml was prepared for the cell suspension. One ml aliquots of this solution were then inoculated into each well of a 12-well plate and cultured for one day at 37° C. in a CO2 incubator. 1 ng/ml of bFGF and various concentrations of complestatin were added to each well followed by additional culturing for 2 days at 37° C. in a CO2 incubator. Next, the number of cells in each well was counted with a Coulter Counter (trade name, available from Coulter Electronics Co.).

[4] = system: chorioallantoic membrane of chick embryo; test: Angiogenesis in the chick embryo chorioallantoic membrane; format: in vivo; details: 2 days, % of fertilized eggs with inhibition
Experimental: The inhibitory effect of complestatin on angiogenesis in the chorioallantoic membrane of chick embryo was investigated according to the method of T. Oikawa, et al. (J. Antibiotics, 44, 1033, 1991). To begin with, a portion of the uppermost part of the air chamber measuring about 1 cm square was removed from three-day-old fertilized chicken eggs, and cultured for 2 days in a humidified incubator. A silicon ring having an outer diameter of 5 mm and inner diameter of 3 mm was placed on the 5-day-old chorioallantoic membrane, and 10 μl of a 1% methylcellulose solution containing various concentrations of the complestatin obtained in Example 2 were added to the inside of the ring.
Moreover, after incubating for 2 days, a suitable amount of fat emulsion (Intralipos, trade name, available from Midori Juji Co.) was injected beneath the chorioallantoic membrane to facilitate microscopic observation followed by observation of angiogenesis in the chorioallantoic membrane. Fertilized eggs in which a region free of blood vessels in the chorioallantoic membrane (having a diameter of at least 3 mm) were judged as having observed inhibition of angiogenesis by complestatin. Angiogenesis inhibition rate (%) was calculated according to the following formula:
100× (number of fertilized eggs in which inhibition of angiogenesis was observed)/(number of fertilized eggs used in test)

[5] = system: human leukemia (HL-60) cells; test: Antitumor activity, HL-60 cells transplanted subcutaneously to SCID mice; format: in vivo, mouse; details: 5 mg/kg intraperitoneally, days 1 to 3, 5 to 9, 12 and 13, CB17 SCID mice, tumor size after 20 days
Experimental: The antitumor activity of complestatin was confirmed in an experiment using human leukemia (HL-60) cells. To begin with, 5×10^6 HL-60 cells were transplanted subcutaneously to CB17. SCID mice (control group: 4 mice, experimental group: 4 mice), and tumor size was measured after 20 days. Complestatin was dissolved in PBS, and administered intraperitoneally at 250μl/day once a day during days 1 to 3, days 5 to 9 and days 12 and 13. The dosing concentration of complestatin was set at 5 mg/kg. The tumor growth inhibition rate caused by complestatin was calculated according to the following formula:
{1− (tumor size at dosing concentration/tumor size at dosing concentration of 0 mg/kg)}×100

[6] = system: human umbilical vein endothelial cells (HUVEC); test: Inhibition of HUVEC cell growth stimulated by bFGF; format: cell-based; details: various concentrations, 10 ng/ml bFGF, 2 days, FIG. 8
Experimental: as §1
(2) On the other hand, medium containing HUVEC at a concentration of 1×10^4 cells/ml (MCDB131 medium containing 10% fetal bovine serum, 25 mM HEPES (pH 7.5), 10 units/ml of penicillin and 10 μg/ml of streptomycin) was prepared for the cell suspension. One ml aliquots of the cell suspension were inoculated into each well of a 12-well plate precoated with type I collagen, and incubated for one day at 37° C. in a CO2 incubator. 10 ng/ml of bFGF and various concentrations of complestatin were added to each well followed by additional incubation for 2 days at 37° C. in a CO2 incubator. Next, the number of cells in each well was counted with a Coulter Counter (trade name, available from Coulter Electronics Co.). Furthermore, with the exception of not adding complestatin, the same procedure was performed for the control.

CN1C(=O)C(c2cc(Cl)c(O)c(Cl)c2)NC(=O)C2NC(=O)C(c3cc(Cl)c(O)c(Cl)c3)NC(=O)C(NC(=O)C(=O)c3cc(Cl)c(O)c(Cl)c3)Cc3c[nH]c4cc(ccc34)-c3cc2cc(c3O)Oc2ccc(cc2)CC1C(=O)NC(C(=O)O)c1ccc(O)cc1 (centres unmarked) [complestatin]
inhibition of specific binding of 125I-bFGF to receptors (bFGF receptors): concentration-dependently inhibit
inhibition of Balb/3T3 clone A31 cell migration stimulated by bFGF (Balb/3T3 clone A31 cells): concentration-dependently inhibit
inhibition at 0.78 µg/mL ([1]; 0.78 μg/ml complestatin): 3%
inhibition at 1.6 µg/mL ([1]; 1.6 μg/ml complestatin): 17%
inhibition at 3.1 µg/mL ([1]; 3.1 μg/ml complestatin): 10%
inhibition at 6.3 µg/mL ([1]; 6.3 μg/ml complestatin): 21%
inhibition at 13 µg/mL ([1]; 13 μg/ml complestatin): 43%
inhibition at 25 µg/mL ([1]; 25 μg/ml complestatin): 91%
inhibition at 50 µg/mL ([1]; 50 μg/ml complestatin): 94%
inhibition at 100 µg/mL ([1]; 100 μg/ml complestatin): 99%
Growth inhibition rate (tumor size) ([2]; 5 mg/kg intraperitoneally): 40%
Growth inhibition rate (tumor size) ([2]; 10 mg/kg intraperitoneally): 68%
inhibition of growth of FBHE promoted by bFGF [3]: concentration-dependently inhibit
Angiogenesis inhibition rate ([4]; 6.25 μg/egg): 14%
Angiogenesis inhibition rate ([4]; 12.5 μg/egg): 33%
Angiogenesis inhibition rate ([4]; 25 μg/egg): 33%
Angiogenesis inhibition rate ([4]; 50 μg/egg): 52%
Angiogenesis inhibition rate ([4]; 100 μg/egg): 77%
Growth inhibition rate (tumor size) [5]: 76%
inhibition of growth of HUVEC promoted by bFGF [6]: concentration-dependently inhibit
